In US20190255042A1, “APPLICATION OF HEDGEHOG PATHWAY INHIBITOR IN TREATING FIBROSIS DISEASES” (IMPACT THERAPEUTICS, INC, priority 2016, published 2019):

Key:
[1] = test system: unilateral pulmonary fibrosis model in SD rats; test: Prophylactic therapeutic efficacy in unilateral pulmonary fibrosis model in SD rats (bleomycin); format: in vivo; set-up: key to Fibrosis score (Ashcraft): Ashcraft semi-quantitative fibrosis score; Evaluation of injury and inflammatory lesions of left lung: Fibrotic lesion edge / Evaluation of injury and inflammatory lesions of left lung: Fibrosis lesion: scale not given here; details: for Evaluation of injury and inflammatory lesions of left lung: Fibrosis lesion / Evaluation of injury and inflammatory lesions of left lung: Fibrotic lesion edge / Fibrosis area (left pulmonary fibrosis) / Fibrosis Score 1-3 (%) / Fibrosis Score 4-8 (%) / Fibrosis score (Ashcraft) / Volume of left lung / Weight of left lung: D15, mean ± sem, n = 8; for Evaluation of injury and inflammatory lesions of left lung: Fibrosis lesion / Evaluation of injury and inflammatory lesions of left lung: Fibrotic lesion edge: HE score; for Fibrosis area (left pulmonary fibrosis): Masson trichrome; for weight of left lung compared with model group: p<0.05
Protocol: 40 male SD rats were randomized into Model group (Group 1, n=8), positive drug group BIBF1120 60 mg/kg/d group (Group 2, n=8), Compound A 5 mg/kg/d group (Group 3, n=8), compound A 10 mg/kg/d group (Group 4, n=8) and Compound A 20 mg/kg/d (Group 5, n=8). On the modeling day, rats were anesthetized and exposed to trachea. Bleomycin was injected into trachea of each group (dosage: 3 mg/kg, volume: 1.0 ml/kg). Oral administration was performed 2 hours after modeling, once a day. On Day 15, all the animals were killed, the left lung was taken, the weight and volume of the left lung were measured, then fixed by formalin, the bronchioles were stained with HE, Masson trichrome. The bronchioles, final bronchiole and small pulmonary artery injury and inflammation invasion were evaluated by semi-quantitative score, and pulmonary fibrosis was evaluated by Ashcraft semi-quantitative score.

[2] = test system: liver fibrosis model in C57BL/6 mice induced by CCl4; test: Prophylactic therapeutic efficacy in liver fibrosis model in C57BL/6 mice induced by CCl4; format: in vivo
Protocol: 56 male C57BL/6 mice were randomize divided into false Model group (Group 1, n=6), Model group (Group 2, n=10), positive drug Obercholic acid group (Group 3, n=10, 30 mg/kg/d), compound A low-dose group (Group 4, n=10, 5 mg/kg/d), Compound A medium-dose (Group 5, n=10, 10 mg/kg/d), and Compound A high-dose group (Group 6, n=10, 20 mg/kg/d). Oral molding agent for molding three times a week, for 4 weeks, weighing before each dose. Compound A was administered orally once a day for a total of 28 days from the day of modeling. The model group was given an equal volume of drug vehicle and weighed before each dose. All animals fasted for 6 hours from 24 hours after the end of the last dose. Serum was collected and the concentrations of AST, ALT and TBIL in serum were detected. All animals were euthanized, the livers were collected, weighed, and photos of the gross anatomy of the livers were taken. The liver tissue was fixed in 10% formalin solution for histopathological examination, H&E staining and Sirius red staining.

[3] = test system: lung fibrosis model in mice induced by bleomycin; test: Therapeutic efficacy in lung fibrosis model in mice induced by bleomycin; format: in vivo, C57BL/6 mice; details: for Percentage of positive α-SMA (%): lung tissue immunohistochemical staining; for Percentage of positive α-SMA (%) / Inflammatory infiltration area / Total lung tissue area / Percentage of inflammatory area (%): n = 10, Mean ± Sem; for Percentage of inflammatory area (%): #<0.05 vs. BLM model group; for inflammatory infiltration area compared with model group: p<0.05
Protocol: Experimental Methods: 60 male C57BL/6 mice were randomize into 6 groups: Blank control group (Group 1, n=10), model group (Group 2, BLM, n=10), Compound A 10 mpk group (Group 3, n=10), compound A 20 mpk group (Group 4, n=10), Compound A 20 mpk +BIBF1120 50 mpk (Group 5, n=10), and BIBF1120 50 mpk positive reference group (Group 6, n=10). One week after the mice were acclimated to the environment, 10 mice in the blank control group were given 50 μl of normal saline in the trachea, and other 50 mice were given 50 μl BLM (0.66 mg/kg, 2 ml/kg) in the trachea. After BLM infusion, 50 mice in BLM infusion group were randomly assigned to start treatment on the 5th day, once a day, with a treatment cycle of 20 days. The whole process was 25 days. After the experiment, the lung tissues were fixed in 10% neutral formalin, dehydrated by alcohol gradient, embedded with paraffin, stained by hematoxylin-eosin (H&E) and Masson trichrome staining. And the inflammatory area and degree of fibrosis of the lung tissues in mice were evaluated by APERIO ScanScope. Immunohistochemical staining of lung tissue was performed to quantify α-SMA positive fibroblasts in lung tissue and to calculate the percentage (%) of α-SMA staining in the entire lung stroma.

[4] = 5 mg/kg/d oral from modeling day
[5] = 10 mg/kg/d oral from modeling day
[6] = 20 mg/kg/d oral from modeling day
[7] = high dose group (20 mg/kg/d), four weeks, p<0.05
[8] = obercholic acid 30 mg/kg/d, compound A 5, 10, 20 mg/kg/d

CC(C)c1cnc(-c2cc(NC(=O)c3ccc(N4C[C@@H](C)N(C)[C@@H](C)C4)cc3C(F)(F)F)ccc2Cl)[nH]1 [Comp A, N-(3-(5-isopropyl-1H-imidazol-2-yl)-4-chlorophenyl)-2-trifluoromethyl-4-((3S,5R)-3,4,5-trimethylpiperazin-1-yl)benzamide]
Evaluation of injury and inflammatory lesions of left lung: Fibrosis lesion [1, 4]: 7.93 ± 0.16
Evaluation of injury and inflammatory lesions of left lung: Fibrotic lesion edge [1, 4]: 5.93 ± 0.20
Fibrosis area (left pulmonary fibrosis) [1, 4]: 81.64 ± 10.49
Fibrosis Score 1-3 (%) [1, 4]: 62.50 ± 16.69%
Fibrosis Score 4-8 (%) [1, 4]: 37.50 ± 16.69%
Fibrosis score (Ashcraft) [1, 4]: 3.33 ± 0.36
Volume of left lung [1, 4]: 1.38 ± 0.05 cm^3
Weight of left lung [1, 4]: 1.37 ± 0.08 g
Evaluation of injury and inflammatory lesions of left lung: Fibrosis lesion [1, 5]: 6.93 ± 0.21
Evaluation of injury and inflammatory lesions of left lung: Fibrotic lesion edge [1, 5]: 5.45 ± 0.28
Fibrosis area (left pulmonary fibrosis) [1, 5]: 78.84 ± 4.44
Fibrosis Score 1-3 (%) [1, 5]: 68.75 ± 19.59%
Fibrosis Score 4-8 (%) [1, 5]: 31.25 ± 19.59%
Fibrosis score (Ashcraft) [1, 5]: 3.15 ± 0.32
Volume of left lung [1, 5]: 1.29 ± 0.06 cm^3
Weight of left lung [1, 5]: 1.13 ± 0.05 g
Evaluation of injury and inflammatory lesions of left lung: Fibrosis lesion [1, 6]: 7.68 ± 0.31
Evaluation of injury and inflammatory lesions of left lung: Fibrotic lesion edge [1, 6]: 6.00 ± 0.13
Fibrosis area (left pulmonary fibrosis) [1, 6]: 76.37 ± 8.33
Fibrosis Score 1-3 (%) [1, 6]: 71.25 ± 22.95%
Fibrosis Score 4-8 (%) [1, 6]: 28.75 ± 22.95%
Fibrosis score (Ashcraft) [1, 6]: 3.29 ± 0.63
Volume of left lung [1, 6]: 1.21 ± 0.09 cm^3
Weight of left lung [1, 6]: 1.13 ± 0.08 g
injury of terminal bronchioles and pulmonary arterioles compared with model group and Compound A-5 mpk group ([1]; 10 mpk, fibrosis foci, p<0.001): significantly reduced
weight of left lung compared with model group ([1]; 10 mpk): significantly lower
weight of left lung compared with model group ([1]; 20 mpk): significantly lower
degree of pulmonary fibrosis (Ashcraft score) compared with model group ([1]; BIBF1120 60 mg/kg/d, Compound A 5, 10, 20 mg/kg/d, p<0.01): significantly alleviated
average score of fibrosis in the entire fibrosis lesion (ashcraft) ([1]; BIBF1120 60 mg/kg/d, compound A 5, 10, 20 mg/kg/d): about 3 points
serum ALT, AST, and TBIL ([2]; 5 mg/kg, 10 mg/kg, and 20 mg/kg daily for four consecutive weeks): Slight reductions
effect on the inflammatory response of liver tissue ([2]; 5, 10, 20 mg/kg daily for four weeks): little effect
dose-dependent ALT and AST ([2]; 5, 10, 20 mg/kg/d, four weeks): decreasing trend
hepatocellular degeneration, necrosis and inflammatory cell infiltration ([2]; Compound A treatment groups 5, 10, 20 mg/kg/d): tendency to reduce
TBIL compared with model group ([2]; Compound A, four weeks of treatment): not significantly decreased
liver weight ([2]; after 4 weeks, compared with false model group, Obercholic acid 30 mg/kg/d, Compound A 5, 10, 20 mg/kg/d): no significant increase
area of liver tissue fibrosis ([2]; compound A dose groups, model group 1.2%, no statistical difference): 0.8%
changes of liver surface compared with model group ([2]; gross liver after 4 weeks, Obercholic acid 30 mg/kg/d, compound A 5, 10, 20 mg/kg/d): slightly alleviated
ALT compared with model group [2, 7]: significantly lower
AST compared with model group [2, 7]: significantly lower
body weight ([2]; high-dose group 20 mg/kg, significant difference from the other groups): no significant body weight growth
hepatic fibrosis area (Sirius red staining) compared with model group [2, 8]: no significant difference
total score of liver cell injury compared with model group [2, 8]: not significantly different
liver injury score ([2]; three dose groups (5, 10, 20 mg/kg), model group 6 points): 4-5 points
Percentage of positive α-SMA (%) ([3]; 10 mpk oral D5 to D25): 0.78 ± 0.11%
Inflammatory infiltration area ([3]; 10 mpk oral D5 to D25): 8.80 ± 2.79 mm^2
Total lung tissue area ([3]; 10 mpk oral D5 to D25): 100.20 ± 3.61 mm^2
Percentage of inflammatory area (%) ([3]; 10 mpk oral D5 to D25): 9.42 ± 3.35^# %
modified pathological Ashcroft score of pulmonary fibrosis injury compared with model group ([3]; 10 mpk, p<0.01): significantly decreased
inflammatory infiltration area compared with model group ([3]; 10 mpk): significantly decreased
Percentage of positive α-SMA (%) ([3]; 20 mpk oral D5 to D25, ##p < 0.01 vs. Model group): 0.64 ± 0.12^## %
Inflammatory infiltration area ([3]; 20 mpk oral D5 to D25): 7.85 ± 2.28 mm^2
Total lung tissue area ([3]; 20 mpk oral D5 to D25): 96.41 ± 3.28 mm^2
Percentage of inflammatory area (%) ([3]; 20 mpk oral D5 to D25): 8.23 ± 2.40^# %
immunohistochemical staining of α-SMA compared with model group ([3]; 20 mpk, p<0.01): significantly decreased
modified pathological Ashcroft score of pulmonary fibrosis injury compared with model group ([3]; 20 mpk, p<0.01): significantly decreased
inflammatory infiltration area compared with model group ([3]; 20 mpk): significantly decreased
